{"source": "paper PMC10605010", "about": "“Immunotechniques for the Group Determination of Macrolide Antibiotics Traces in the Environment Using a Volume-Mediated Sensitivity Enhancement Strategy” (Biosensors, 2023)", "key": {"[1]": {"tested_on": "Anti-CLA(IgG) coupled to Sepharose beads", "assay": "Immunobead assay (IBA)", "type": "binding, rabbit", "conditions": "2 h", "description": "(§1) Sepharose 4B or Sepharose-CL-2B (Pharmacia, Uppsala, Sweden) were washed with water on a porous glass filter and then squeezed out with a soft press from excess moisture. The washed beads (2 g) were placed in a vial with sodium periodate solution (60 mg in 5 mL H2O) and mixed with a rotary mixer (ELMI Ltd. laboratory equipment, Riga, Latvia) for 45 min. An additional 30 min rotation continued after the addition of ethylene glycol (250 µL). The beads were then washed with water and finally with CBB (pH 9.6) squeezed mildly out. Each of the activated sorbents was placed in a vial for mixing with anti-cmoCLA IgG (10 mg) in 2 mL CBB (pH 9.6) for 48 h at 4 °C. The excess antibody was squeezed out. The beads were then washed with water and placed in a sodium borohydride solution (4 mg/4 mL) for 1 h with occasional shaking. After the final washing with water and PSBT, the resulting immune sorbents were stored at 4 °C in 10 mL of PSBT preserved with Merthiolate (1 mg).\n(§2) To implement these assay formats, the IgG fraction was first isolated from antiserum via the double precipitation method using caprylic acid and ammonium sulfate, described in detail in [22]. The principle of the assays is based on competition between analyte and enzyme-labeled antigen (HRP-aecAZI) for binding to an antibody coated on the plate (dcELISA) or coupled covalently to Sepharose beads. The latter immunosorbent was used in the immunobeads assay (IBA) and immunofiltration assay (IFA).\nImmunobead assay (IBA). Standard solution of analyte or tested sample in 1–2 mL PBST were accomplished with HRP-aecAZI and immunosorbents Anti-CLA(IgG)-S4B or Anti-CLA(IgG)-SCL2B taken in optimized concentration/volume and incubated for 0.5–3 h periods at a rotary mixer mixing (15 rpm). The beads were then pelleted using centrifugation (5 min, 3400× g) and suspended to the original volume with PBST. After three washing cycles, the bead pellet was suspended with TMB-substrate mixture (200 μL), and 8 M sulfuric acid (50 μL) was added 30 min later to terminate enzymatic reaction. The intensity of the colored product was measured using a plate reader at 450 nm."}, "[2]": {"tested_on": "antibody, immunogen Commercial", "design": "method as in PMID 26497839", "conditions": "milk; cited from earlier work"}, "[3]": {"tested_on": "anti-BSA-cmoCLA(ae) antibodies", "assay": "Indirect competitive ELISA (icELISA), variants by coating antigen", "type": "binding, rabbit", "conditions": "for CR: CLA = 100", "description": "In present work, we investigated and compared several new-designed and previously established coating antigens, which were adsorbed on the 96-well Costar plates from 0.1 to 3.0 µg/mL solutions in CBB (pH 9.6) overnight at 4 °C. […] Solutions of these analytes (1 pg/mL–1 μg/mL) were added to wells of the plate along with anti-cmoCLA antibody in PBS-T with 1%BSA and incubated for 1 h at 25 °C in plate-shaker ST-3 L (ELMI Ltd. laboratory equipment, Riga, Latvia). GAR-HRP was used to detect antigen-antibody formed complexes for 1 h at 37 °C. The activity of the bound enzyme was detected using TMB-substrate mixture, and the intensity of colored product was read at 450 nm using a LisaScan spectrophotometer (Erba Mannheim, Czech Republic). […] The relative antibody-binding absorbance (B/B0) was determined for each concentration of analyte and used to construct a calibration curve as B/B0 versus the concentration. Structurally related macrolides CLA, ESE, ROX, AZI, DIR, TUL, and OLE were analyzed for their cross-reactions. […] Assay sensitivity, limit of detection (LOD), and working range of the assay were set as values of IC50, IC10, and IC20-IC80 range, respectively."}, "[4]": {"tested_on": "anti-BSA-cmoCLA(ae) antibody", "assay": "PrG-Ab-ELISA, step-by-step oriented antibody coating via protein G, direct competitive", "type": "binding, rabbit", "conditions": "0.5 h, coating Ab 200 µL, standard/sample 250 µL", "excerpt": "(§3) Another important consideration was the enhancement of the functional activity of antibodies through their oriented immobilization on the surface of polystyrene and its potential impact on the method sensitivity. This was achieved by interacting the adsorbed protein G with the antibody Fc fragments, allowing the antibody-binding fragments to remain spatially accessible. This interaction could be implemented in a step-by-step manner or as a result of self-assembly (Figure 4A). The step-by-step procedure involved the initial formation of a complex between the coated protein G and the antibody (PrG-Ab), followed by a competitive assay step. An alternative self-assembly method implied the competitive interaction of antibody with an analyte (sample) and a tracer in the solution with simultaneous binding to the coated protein G (PrG)."}, "[5]": {"tested_on": "anti-BSA-cmoCLA(ae) antibody", "assay": "PrG-ELISA, self-assembly on coated protein G, direct competitive", "type": "binding, rabbit", "conditions": "1.5 h, coating Ab 200 µL, standard/sample 250 µL", "excerpt": "as §3"}, "[6]": {"tested_on": "antibody, immunogen Commercial", "design": "method as in doi:10.1007/s12161-015-0130-x", "conditions": "milk; cited from earlier work"}, "[7]": {"tested_on": "Anti-CLA(IgG) coupled to Sepharose beads", "assay": "Immunofiltration assay (IFA)", "type": "binding, rabbit", "conditions": "overnight, Ab volume 50 µL, standard/sample 10,000 µL", "description": "as §1, §2\nImmunofiltration assay (IFA). The IFA principle consisted of passing a mixture of standard/sample (10 mL) and HRP-aecAZI through the beads with immobilized antibodies (Anti-CLA(IgG)-S4B or Anti-CLA(IgG)-SCL2B) placed in a homemade column and recording the enzymatic activity of the captured HRP-aecAZI. Briefly, the optimal volume of the prepared immunosorbent was placed on a pre-moistened filter support in a 10 μL filtered micropipette tip, which was then accurately attached to a syringe. This homemade column was filled with 10 mL of the standard analyte or water sample, avoiding the formation of bubbles. […]"}, "[8]": {"tested_on": "antibody to immunogen BSA-cmoERY(ma)", "conditions": "milk; ERY = 100; cited from earlier work"}, "[9]": {"conditions": "Ab volume 10 µL, standard/sample 1000 µL"}, "[10]": {"conditions": "Ab volume 20 µL, standard/sample 2000 µL"}, "[11]": {"conditions": "coating antigen OVA-aecAZI(dma)"}}, "note": "Where two headings read alike, the source gives them in different places.", "data": [{"smiles": "CC[C@H]1OC(=O)[C@H](C)[C@@H](O[C@H]2C[C@@](C)(OC)[C@@H](O)[C@H](C)O2)[C@H](C)[C@@H](O[C@@H]2O[C@H](C)C[C@H](N(C)C)[C@H]2O)[C@](C)(O)C[C@@H](C)C(=O)[C@H](C)[C@@H](O)[C@]1(C)O", "note": "[ERY, Erythromycin]", "values": [{"measurement": "IC10 (LOD)", "setting": "[1]; [9]", "result": 0.003, "unit": "ng/mL"}, {"measurement": "IC20-IC80 (working range)", "setting": "[1]; [9]", "result": "0.006 to 0.056", "unit": "ng/mL"}, {"measurement": "IC50", "setting": "[1]; [9]", "result": 0.018, "unit": "ng/mL"}, {"measurement": "IC10 (LOD)", "setting": "[1]; [10]", "result": 0.001, "unit": "ng/mL"}, {"measurement": "IC20-IC80 (working range)", "setting": "[1]; [10]", "result": "0.003 to 0.057", "unit": "ng/mL"}, {"measurement": "IC50", "setting": "[1]; [10]", "result": 0.012, "unit": "ng/mL"}, {"measurement": "CR", "setting": "[2]", "result": 100, "unit": "%"}, {"measurement": "LOD", "setting": "[2]", "result": "ni//0.13 ng/mL"}, {"measurement": "IC50", "setting": "[3]; coating antigen OVA(pi)-aecAZI", "result": 0.042, "unit": "ng/mL"}, {"measurement": "LOD", "setting": "[3]; coating antigen OVA(pi)-aecAZI, water", "result": 0.01, "unit": "ng/mL"}, {"measurement": "CR", "setting": "[3]; coating antigen OVA(pi)-aecAZI", "result": 105, "unit": "%"}, {"measurement": "IC50", "setting": "[3]; [11]", "result": 0.223, "unit": "ng/mL"}, {"measurement": "CR", "setting": "[3]; [11]", "result": 70.4, "unit": "%"}, {"measurement": "IC50", "setting": "[3]; coating antigen OVA-aecAZI(ga)", "result": 0.049, "unit": "ng/mL"}, {"measurement": "CR", "setting": "[3]; coating antigen OVA-aecAZI(ga)", "result": 87.8, "unit": "%"}, {"measurement": "IC50", "setting": "[3]; coating antigen OVA-cmoERY(ae)", "result": 0.240, "unit": "ng/mL"}, {"measurement": "CR", "setting": "[3]; coating antigen OVA-cmoERY(ae)", "result": 71.7, "unit": "%"}, {"measurement": "IC10 (LOD)", "setting": "[4]", "result": 0.002, "unit": "ng/mL"}, {"measurement": "IC20-IC80 (working range)", "setting": "[4]", "result": "0.006 to 0.054", "unit": "ng/mL"}, {"measurement": "IC50", "setting": "[4]", "result": 0.020, "unit": "ng/mL"}, {"measurement": "IC10 (LOD)", "setting": "[5]", "result": 0.007, "unit": "ng/mL"}, {"measurement": "IC20-IC80 (working range)", "setting": "[5]", "result": "0.015 to 0.199", "unit": "ng/mL"}, {"measurement": "IC50", "setting": "[5]", "result": 0.055, "unit": "ng/mL"}, {"measurement": "CR", "setting": "[6]", "result": 100, "unit": "%"}, {"measurement": "LOD", "setting": "[6]", "result": "ni//5 ng/mL"}, {"measurement": "IC10 (LOD)", "setting": "[7]", "result": 0.001, "unit": "ng/mL"}, {"measurement": "IC20-IC80 (working range)", "setting": "[7]", "result": "0.002 to 0.019", "unit": "ng/mL"}, {"measurement": "IC50", "setting": "[7]", "result": 0.005, "unit": "ng/mL"}, {"measurement": "CR", "setting": "[8]", "result": 100, "unit": "%"}]}]}
